# In patent US10004711B2, “Methods and compositions comprising 10-hydroxy-2-decenoic acid” (DSM IP ASSETS B.V., priority 2014, dated 2018):
# Columns and labels:
# [1] = system: RAW264.7 mouse macrophage cell line; assay: IL-1β levels after LPS stimulation; type: cell-based; conditions: for IL-1β (pg/mL)/Cell Numbers: 24 h
# Description: (§1) Cultures of the RAW264.7 mouse macrophage cell line were pre-treated with 10-Hydroxy-2-decenoic acid (QBA) for 1 hour prior to stimulation with lipopolysaccharide (LPS, 100 ng/mL). After 24 hours of incubation, interleukin […] (IL-1β) and tumor necrosis factor-α (TNFα) levels were determined by Luminex technology and cell numbers were measured using Alamar Blue. Results are given as a ratio of cytokine concentration/cell number.
# [2] = system: 19-20 month-old male rats; assay: Elevated plus-maze, rats fed QBA alone or QBA+DHA; type: in vivo, rat; conditions: DHA 0.00
# Description: Rats were fed QBA and subjected to an elevated plus-maze. The elevated plus-maze was elevated ˜85 cm above the floor and consisted of two open and two closed arms of the same size (50×10 cm). The closed arms were surrounded by walls 40 cm high, and the arms were constructed of black acrylic slabs that radiated from a central platform (10×10 cm) to form a plus sign. Each rat was placed in the central platform facing one of the open arms, and its behavior was recorded during a 5-min testing period with video capture software. More time spent in the open arms is an indication of reduced anxiety-like state. Rats were tested at 18 months old (N=11-13 per group).
# The dose-response characteristics of 10-Hydroxy-2-decenoic acid's (QBA's) in combination with DHA for potential brain health benefits during aging were assessed for mood in 19-20 month-old male rats (N=11-14 per group). Rats were fed QBA alone or QBA+DHA and subjected to an elevated plus-maze.
# [3] = system: Adult female Long-Evans rats; assay: Ovulatory cycle status of female rats with abnormal ovulatory cycles; type: in vivo, rat; conditions: six weeks, count of animals
# From the text: Adult female Long-Evans rats (3 months-old) with abnormal ovulatory cycles were fed diets containing 10-Hydroxy-2-decenoic acid (QBA) or no QBA for six (6) weeks. Female rats having normal ovulatory cycle were used as positive controls and were not fed QBA.
# [4] = system: RAW264.7 mouse macrophage cell line; assay: TNFα levels after LPS stimulation; type: cell-based; conditions: for TNFα (pg/mL)/Cell Numbers: 24 h
# Description: as §1
# [5] = system: Young adult female Long-Evans rats; assay: Conception index of female rats with abnormal ovulatory cycles; type: in vivo, rat; conditions: for Conception Index (%): eight weeks, then mated
# Description: Young adult female Long-Evans rats (3 months-old) with abnormal ovulatory cycles were fed diets containing 10-Hydroxy-2-decenoic acid (QBA) or no QBA for eight (8) weeks and then mated with a male rat. Female rats having normal ovulatory cycles were used as positive controls and were not fed QBA. The conception index was determined. The conception index is a measure of conception efficiency and is equal to the number of pregnancies divided by the number of discernable mating sessions multiplied by 100.
# [6] = system: Neurons from the brain's hippocampus; assay: In vitro hypoxia cell death (ethidium homodimer); type: cell-based, rat; conditions: for Cell Death (% Control): hypoxia (<0.3% O2) 48 h
# Description: (§2) Neurons from the brain's hippocampus were derived from E17 pups and incubated for 7 days. The neurons were then pre-treated with QBA for 48 hours and subsequently exposed to a hypoxia (<0.3% O2) for 48 hours. The cultures were stained with calcein AM, a marker of live cells, and with ethidium homodimer, a marker for dead cells. The fluorescence of each of these markers was then quantitated with a fluorimeter.
# [7] = system: Neurons from the brain's hippocampus; assay: In vitro hypoxia cell health (calcein AM); type: cell-based, rat; conditions: for Cell Viability (% Control): hypoxia (<0.3% O2) 48 h
# Description: as §2
# [8] = Body weight of aged male rats fed QBA and/or DHA (Example 8); type: in vivo, rat
# Description: Aged male rats were fed 10-Hydroxy-2-decenoic acid (QBA) for approximately […] from 12-months to 20-months of age and the weight of rats was recorded.
# [9] = QBA 50 μM 1 h before LPS 100 ng/mL
# [10] = QBA 100 μM 1 h before LPS 100 ng/mL
# [11] = QBA 500 μM 1 h before LPS 100 ng/mL
# [12] = QBA 1000 μM 1 h before LPS 100 ng/mL
# [13] = QBA 2500 μM 1 h before LPS 100 ng/mL
# [14] = QBA 5000 μM 1 h before LPS 100 ng/mL
# [15] = QBA 10.00 μM pre-treatment 48 h
# [16] = QBA 30.00 μM pre-treatment 48 h
# [17] = QBA 100.00 μM pre-treatment 48 h
smiles,measurement,setting,value
"O=C(O)C=CCCCCCCCO [QBA, 10-Hydroxy-2-decenoic acid]",IL-1β (pg/mL)/Cell Numbers,[1]; [9],0.00386 (pg/mL)/Cell Numbers
same,IL-1β (pg/mL)/Cell Numbers,[1]; [10],0.00402 (pg/mL)/Cell Numbers
same,IL-1β (pg/mL)/Cell Numbers,[1]; [11],0.00242 (pg/mL)/Cell Numbers
same,IL-1β (pg/mL)/Cell Numbers,[1]; [12],0.00242 (pg/mL)/Cell Numbers
same,IL-1β (pg/mL)/Cell Numbers,[1]; [13],0.00097 (pg/mL)/Cell Numbers
same,IL-1β (pg/mL)/Cell Numbers,[1]; [14],0.00067 (pg/mL)/Cell Numbers
same,production of IL-1β in immune cells,[1]; summary of Table 9,reduced the production
same,Time (s) in Open Arm,[2]; QBA 12 mg/kg/day,31.7 s
same,Time (s) in Open Arm,[2]; QBA 24 mg/kg/day,31.7 s
same,Ovulatory Cycle Status Abnormal,[3]; QBA 0.4 mg/kg/day,7
same,Ovulatory Cycle Status Normal,[3]; QBA 0.4 mg/kg/day,8
same,Ovulatory Cycle Status Abnormal,[3]; QBA 4 mg/kg/day,9
same,Ovulatory Cycle Status Normal,[3]; QBA 4 mg/kg/day,6
same,Ovulatory Cycle Status Abnormal,[3]; QBA 12 mg/kg/day,4
same,Ovulatory Cycle Status Normal,[3]; QBA 12 mg/kg/day,11
same,Ovulatory Cycle Status Abnormal,[3]; QBA 24 mg/kg/day,12
same,Ovulatory Cycle Status Normal,[3]; QBA 24 mg/kg/day,3
same,TNFα (pg/mL)/Cell Numbers,[4]; [9],0.409 (pg/mL)/Cell Numbers
same,TNFα (pg/mL)/Cell Numbers,[4]; [10],0.456 (pg/mL)/Cell Numbers
same,TNFα (pg/mL)/Cell Numbers,[4]; [11],0.427 (pg/mL)/Cell Numbers
same,TNFα (pg/mL)/Cell Numbers,[4]; [12],0.261 (pg/mL)/Cell Numbers
same,TNFα (pg/mL)/Cell Numbers,[4]; [13],0.252 (pg/mL)/Cell Numbers
same,TNFα (pg/mL)/Cell Numbers,[4]; [14],0.150 (pg/mL)/Cell Numbers
same,production of TNFα in immune cells,[4]; summary of Table 10,reduced the production
same,Conception Index (%),[5]; QBA 0.4 mg/kg/day,112.5%
same,Conception Index (%),[5]; QBA 4 mg/kg/day,107.7%
same,Conception Index (%),[5]; QBA 12 mg/kg/day,225.0%
same,Conception Index (%),[5]; QBA 24 mg/kg/day,200.0%
same,conception index,[5]; summary of Table 17,increased the conception index
same,Cell Death (% Control),[6]; QBA 0.10 μM pre-treatment 48 h,86.26 % Control
same,Cell Death (% Control),[6]; QBA 0.30 μM pre-treatment 48 h,83.62 % Control
same,Cell Death (% Control),[6]; QBA 1.00 μM pre-treatment 48 h,83.00 % Control
same,Cell Death (% Control),[6]; QBA 3.00 μM pre-treatment 48 h,82.20 % Control
same,Cell Death (% Control),[6]; [15],85.13 % Control
same,Cell Death (% Control),[6]; [16],82.29 % Control
same,Cell Death (% Control),[6]; [17],86.39 % Control
same,cell death after low oxygen exposure,[6]; summary of Table 4,decreased cell death
same,Cell Viability (% Control),[7]; QBA 0.10 μM pre-treatment 48 h,109.72 % Control
same,Cell Viability (% Control),[7]; QBA 0.30 μM pre-treatment 48 h,112.76 % Control
same,Cell Viability (% Control),[7]; QBA 1.00 μM pre-treatment 48 h,118.80 % Control
same,Cell Viability (% Control),[7]; QBA 3.00 μM pre-treatment 48 h,121.04 % Control
same,Cell Viability (% Control),[7]; [15],117.65 % Control
same,Cell Viability (% Control),[7]; [16],115.05 % Control
same,Cell Viability (% Control),[7]; [17],111.82 % Control
same,cell health after low oxygen exposure,[7]; summary of Table 5,increased cell health
same,Avg Wt,"[8]; QBA 12 mg/kg/day, study day 0",547.0 g
same,Avg Wt,"[8]; QBA 12 mg/kg/day, study day 4",560.9 g
same,Avg Wt,"[8]; QBA 12 mg/kg/day, study day 11",571.5 g
same,Avg Wt,"[8]; QBA 12 mg/kg/day, study day 18",580.1 g
same,Avg Wt,"[8]; QBA 12 mg/kg/day, study day 25",584.5 g
same,Avg Wt,"[8]; QBA 12 mg/kg/day, study day 32",590.8 g
same,Avg Wt,"[8]; QBA 12 mg/kg/day, study day 39",591.7 g
same,Avg Wt,"[8]; QBA 12 mg/kg/day, study day 46",594.3 g
same,Avg Wt,"[8]; QBA 12 mg/kg/day, study day 53",595.4 g
same,Avg Wt,"[8]; QBA 12 mg/kg/day, study day 60",598.7 g
same,Avg Wt,"[8]; QBA 12 mg/kg/day, study day 67",597.8 g
same,Avg Wt,"[8]; QBA 12 mg/kg/day, study day 74",603.7 g
same,Avg Wt,"[8]; QBA 12 mg/kg/day, study day 81",607.3 g
same,Avg Wt,"[8]; QBA 12 mg/kg/day, study day 88",608.5 g
same,Avg Wt,"[8]; QBA 12 mg/kg/day, study day 95",612.8 g
same,Avg Wt,"[8]; QBA 12 mg/kg/day, study day 102",614.5 g
same,Avg Wt,"[8]; QBA 12 mg/kg/day, study day 109",617.0 g
same,Avg Wt,"[8]; QBA 12 mg/kg/day, study day 116",617.2 g
same,Avg Wt,"[8]; QBA 12 mg/kg/day, study day 123",617.3 g
same,Avg Wt,"[8]; QBA 12 mg/kg/day, study day 130",616.9 g
same,Avg Wt,"[8]; QBA 12 mg/kg/day, study day 137",621.5 g
same,Avg Wt,"[8]; QBA 12 mg/kg/day, study day 144",619.1 g
same,Avg Wt,"[8]; QBA 12 mg/kg/day, study day 151",620.5 g
same,Avg Wt,"[8]; QBA 24 mg/kg/day, study day 0",551.5 g
same,Avg Wt,"[8]; QBA 24 mg/kg/day, study day 4",566.8 g
same,Avg Wt,"[8]; QBA 24 mg/kg/day, study day 11",573.4 g
same,Avg Wt,"[8]; QBA 24 mg/kg/day, study day 18",585.7 g
same,Avg Wt,"[8]; QBA 24 mg/kg/day, study day 25",593.1 g
same,Avg Wt,"[8]; QBA 24 mg/kg/day, study day 32",596.0 g
same,Avg Wt,"[8]; QBA 24 mg/kg/day, study day 39",599.7 g
same,Avg Wt,"[8]; QBA 24 mg/kg/day, study day 46",601.5 g
same,Avg Wt,"[8]; QBA 24 mg/kg/day, study day 53",601.8 g
same,Avg Wt,"[8]; QBA 24 mg/kg/day, study day 60",606.5 g
same,Avg Wt,"[8]; QBA 24 mg/kg/day, study day 67",607.5 g
same,Avg Wt,"[8]; QBA 24 mg/kg/day, study day 74",611.8 g
same,Avg Wt,"[8]; QBA 24 mg/kg/day, study day 81",614.5 g
same,Avg Wt,"[8]; QBA 24 mg/kg/day, study day 88",617.8 g
same,Avg Wt,"[8]; QBA 24 mg/kg/day, study day 95",620.2 g
same,Avg Wt,"[8]; QBA 24 mg/kg/day, study day 102",623.9 g
same,Avg Wt,"[8]; QBA 24 mg/kg/day, study day 109",627.4 g
same,Avg Wt,"[8]; QBA 24 mg/kg/day, study day 116",630.3 g
same,Avg Wt,"[8]; QBA 24 mg/kg/day, study day 123",629.2 g
same,Avg Wt,"[8]; QBA 24 mg/kg/day, study day 130",630.3 g
same,Avg Wt,"[8]; QBA 24 mg/kg/day, study day 137",633.5 g
same,Avg Wt,"[8]; QBA 24 mg/kg/day, study day 144",642.1 g
same,Avg Wt,"[8]; QBA 24 mg/kg/day, study day 151",638.6 g
same,"body weight versus control, repeated measures ANOVA",[8]; all doses versus 0 mg/kg/day QBA or 0 mg/kg/day QBA+0.07% DHA,small but significant increase
same,body weight maintenance in aging male rats,[8]; summary of Table 14,helped to maintain healthy body weight
